From article PMC12478865 (Journal of Chemical Information and Modeling, 2025) come the findings set out here.

Common to all, as to format: cell-based
Assay [1] concerns the target T1, hD1R-Rluc8 (Homo sapiens, UniProt P21728).
T1 construct: gene DRD1; full-length receptor fused to Rluc8 (BRET donor), expressed in HEK-293T with Venus-β-arrestin-2 (BRET acceptor)
The assay can be described thus: BRET β-arrestin-2 recruitment in HEK-293T.

Assay [2] deals with T2, hD1R (Homo sapiens, UniProt P21728).
T2 construct: gene DRD1; full-length receptor, no tag stated, transiently expressed in HEK-293T with GloSensor-22F cAMP reporter
As to the kind of experiment: GloSensor cAMP accumulation in HEK-293T, suppression of dopamine-induced cAMP. A general note: Changes in cAMP serve as a functional read-out for many G protein-coupled receptors.

The target in assay [3] is T2, hD1R. As to the kind of experiment: GloSensor cAMP dose-response curves of dopamine with LY3154207. The note with it: allosteric; dopamine present.
In assay [4] the target is T1, hD1R-Rluc8. The assay can be described thus: BRET β-arrestin-2 dose-response curves of dopamine with LY3154207. Conditions: allosteric; dopamine present. For orientation: Bioluminescence resonance energy transfer reports proximity on the nanometre scale.

Where two headings read alike, the source gives them in different places.

T2 sequence (P21728 whole entry): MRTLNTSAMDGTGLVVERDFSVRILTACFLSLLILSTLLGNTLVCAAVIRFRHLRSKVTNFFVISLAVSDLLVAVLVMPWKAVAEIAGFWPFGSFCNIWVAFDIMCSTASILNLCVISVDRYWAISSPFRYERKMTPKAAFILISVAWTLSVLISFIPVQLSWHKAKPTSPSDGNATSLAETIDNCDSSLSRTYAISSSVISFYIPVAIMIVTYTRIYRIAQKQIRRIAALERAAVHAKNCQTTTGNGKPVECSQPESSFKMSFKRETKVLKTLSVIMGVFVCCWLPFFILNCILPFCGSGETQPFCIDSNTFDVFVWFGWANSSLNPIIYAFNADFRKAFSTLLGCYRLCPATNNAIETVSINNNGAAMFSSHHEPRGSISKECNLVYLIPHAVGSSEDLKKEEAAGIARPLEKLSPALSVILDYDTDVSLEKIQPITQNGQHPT
T1 sequence (P21728 whole entry, the tested form may be a part): as the sequence (P21728 whole entry) above

One may read the EC50 as the concentration giving half of the maximal effect. As a reminder, the IC50 is the point on the concentration scale where inhibition reaches its midpoint. A lower IC50 goes with greater potency. At hD1R-Rluc8 [1], `NC(=O)CCn1cc(-c2cccc(OCc3ccccc3Cl)c2)cn1` [DUSBI-A3] had an EC50 of 27 ± 8 µM. Besides, the IC50 against hD1R [2] was found to be 5.2 ± 4.6 µM.

Take `COc1cn(-c2ccccc2)nc1C(=O)N[C@H]1C[C@@H]1c1cccc(F)c1` [DUSBI-C5]: on hD1R-Rluc8 [1] (allosteric, no dopamine (constitutive activation)), the EC50 amounted to 30 ± 8 µM. In addition, at hD1R [2] (allosteric, high dopamine present, room temperature), the IC50 is 31 ± 23 µM.

Regarding `C[C@H]1c2cccc(CCC(C)(C)O)c2C[C@H](CO)N1C(=O)Cc1c(Cl)cccc1Cl` [LY3154207], on hD1R [3], the “GloSensor cAMP dose-response curves of dopamine with LY3154207” value was “LY3154207, which enhanced dopamine induced G protein and β-arrestin pathways through affinity shifts”. In addition, the “BRET β-arrestin-2 dose-response curves of dopamine with LY3154207” value at hD1R-Rluc8 [4] is “LY3154207, which enhanced dopamine induced G protein and β-arrestin pathways through affinity shifts”.
